Source: US4151282A, “Compositions and methods for treating diabetic complications” (A. H. Robins Company, Inc., priority 1977, dated 1979)

Experiments:
[1] = target: T1, Aldose reductase isolated from bovine lens (Bos taurus, UniProt P16116); experiment: Inhibition of aldose reductase isolated from bovine lens (Lineweaver-Burk); format: biochemical; conditions: procedure of Lineweaver and Burk, read-out: Amount which inhibits the maximum velocity of the aldose reductase activity by 50% (IC50)
T1 construct: Aldose reductase was isolated from bovine lens; from tissue; host or cells: bovine lens
Procedure: The ability of 4,5-dihydro-4H-pyrrolo[3,2,1-ij]quinoline-1,2-dione to inhibit aldose reductase activity was determined according to the procedure of Lineweaver, H., and Burk D., The Determination of Enzyme Dissociation Constants, J. Am. Chem. Soc. 658-666 (1934).
Aldose reductase was isolated from bovine lens and the activity of the enzyme determined according to Gabbay, R. H. and Kinoshita, J. H., Methods in Enzymology, Vol. XLI (B) 37:159.

[2] = test system: aldose reductase; experiment: Lens polyol (dulcitol) accumulation in galactose-fed rats; format: in vivo, rat (male albino, Spraque-Dawley); conditions: for Mean Polyol Accumulation, Micromoles Dulcitol/g of Tissue: rat lens 24 h after third dose
Procedure: As discussed hereinabove, sugar cataract formation is a frequent complication of the diabetic patient and their occurrence is apparent even in patients where diabetes appears controlled. […] The accumulation of polyols in the lens tissue results in osmotic and histological changes which are characteristic of sugar cataracts. […] Control rats received a 10% galactose solution at a dose level of 10 ml/kg. daily for three days. The total dose was 1 g/kg daily. Six animals per control group were used. Groups receiving galactose plus test drug contained three rats. The routine starting dose of a test drug was 100 mg/kg. orally for three days with galactose given simultaneously. The test drug was administered at a volume of 5 ml/kg. The test drug solution and the galactose solution were administered together. Twenty-four hours after the third dose the lens of the eyeballs were carefully removed from the sacrificed rats and the polyol content of the lens determined according to West and Rapport, Proc. Soc. Exp. Biol. Med. 70, 141-142 (1949).

IC50 [1]	SMILES	Mean Polyol Accumulation, Micromoles Dulcitol/g of Tissue ([2]; Experiment No. 1, 100 mg/kg PO daily for three days with galactose 1 g/kg daily, galactose controls 3.7)	Mean Polyol Accumulation, %± Control ([2]; Experiment No. 1, 100 mg/kg PO daily for three days with galactose, rat lens, vs galactose controls)	Mean Polyol Accumulation, %± Control ([2]; po, 100 mg/kg, 72 h)	Mean Polyol Accumulation, Micromoles Dulcitol/g of Tissue ([2]; Experiment No. 1, 200 mg/kg PO daily for three days with galactose 1 g/kg daily, galactose controls 3.7)	Mean Polyol Accumulation, %± Control ([2]; Experiment No. 1, 200 mg/kg PO daily for three days with galactose, rat lens, vs galactose controls)	Mean Polyol Accumulation, Micromoles Dulcitol/g of Tissue ([2]; Experiment No. 2, 100 mg/kg PO daily for three days with galactose 1 g/kg daily, galactose controls 4.3)	Mean Polyol Accumulation, %± Control ([2]; Experiment No. 2, 100 mg/kg PO daily for three days with galactose, rat lens, vs galactose controls)
80 µM	O=C1C(=O)N2CCCc3cccc1c32 [AHR-5191, 5,6-dihydro-4H-pyrrolo[3,2,1-ij]quinoline-1,2-dione]	2.1 Micromoles Dulcitol/g of Tissu	-43.2%	-37.0%				
90 µM	O=C(O)CN1C(=O)c2cccc3cccc(c23)C1=O [Ay-22,284, 1,3-dioxo-1H-benz[de]isoquinoline-2(3H) acetic acid]				2.7 Micromoles Dulcitol/g of Tissu	-27%	5.9 Micromoles Dulcitol/g of Tissu	+37.2%
